{"source": "patent US20240327792A1", "about": "“FLUID SHEAR STRESS FOR EX VIVO ACTIVATION OF IMMUNE EFFECTOR CELLS” (Vanderbilt University, priority 2021, published 2024)", "key": {"[1]": {"tested_on": "NF-κB phosphorylation in DC2.4 cells", "test": "NF-κB phosphorylation in DC2.4 dendritic cells (flow cytometry)", "format": "cell-based, murine", "method": "(§1) Prior to prepping cells, the cone-and-plate was incubated with 5% bovine serum albumin (BSA) for 1 h in order to block non-specific binding. DC2.4 cells were lifted with trypsin, washed, and resuspended in complete RMPI media at 200,000 cells/mL. Cells were placed on a rotator for static conditions. For shear conditions, an FSS of 5.0 dyn/cm^2 was applied for 1 h using cone-and-plate flow device. Static and shear conditions were either left untreated or treated with lipopolysaccharide (LPS) potent stimulator at 10 μg/mL.\n(§2) Flow cytometry analysis and antibody staining: Following FSS stimulation, cells were plated overnight or immediately prepped for flow cytometry analysis. For intracellular proteins such as NF-κB and AP-1, cells were fixed with 4% paraformaldehyde for 10 min. Cells were washed with HBSS and permeabilized with 100% ice cold methanol. Cells were washed again and stained for 15 min in the dark with antibodies fluorescently-labeled with PE fluorophore while suspended in 1% BSA. Guava easyCyte 5HT flow cytometer was used to measure fluorescent intensity, with FloJo software used for gating and analysis. For extracellular proteins analyzed after 24 h, cells were lifted with trypsin, washed, and incubated with fluorescently-labeled antibodies in 1% BSA and then washed a final time.\n(§3) Inhibition of NF-κB: NF-κB was inhibited using caffeic acid phenethyl ester (CAPE). DC2.4 cells were lifted, washed and suspended in 200,000 cells/mL complete media. 1 μL of CAPE was added to this suspension. Cells were placed on a rotator for 30 min to allow for effective inhibition, and then added to the cone-and-plate viscometer for FSS stimulation. Following FSS, NF-κB phosphorylation analysis was performed after 1 h FSS. Following stimulation, 100,000 cells were plated overnight for cytokine analysis and 100,000 cells were immediately analyzed for NF-κB phosphorylation. NF-κB and cytokine assays were performed as described previously.\nGsMTx4: GsMTx-4 (ab141871) was purchased from Abcam. […] Following FSS, cells were prepared and analyzed for NF-κB phosphorylation as previously described. […]"}, "DC2.4 cells [2]": {"tested_on": "DC2.4 cells", "test": "Costimulatory molecule expression in DC2.4 cells 24 h after stimulation", "format": "cell-based, murine", "settings": "10 μg/mL LPS, 24 h after 1 h stimulation, regardless of shear stress", "method": "as §1, §2"}, "DC2.4 cells [3]": {"tested_on": "DC2.4 cells", "test": "Intracellular cytokine staining of DC2.4 cells after 24 h (IL-6, IL-12, CCR7)", "format": "cell-based, murine", "method": "as §1\nCytokine staining: For intracellular cytokine staining (ICS), cells were plated overnight following FSS stimulation. After 24 h, cells were treated with 1:1000 GolgiPlug Transport Inhibitor to block cytokine secretion. After 4 h, cells were lifted and stained following the previously described protocol for staining intracellular proteins. IL-6, IL-12 and CCR7 were investigated in this study.\nas §3"}, "[4]": {"tested_on": "ZAP70 phosphorylation in Jurkat cells", "test": "ZAP70 phosphorylation of Jurkat cells treated with FSS and CD3/CD28 antibodies (flow cytometry)", "format": "cell-based, human", "method": "T cell activation by FSS: Jurkat or primary T cells were collected and resuspended at a concentration of 200,000 cells/mL in complete RPMI 1640 media. The cells were treated with or without functional grade antibodies targeting CD3 (OKT3) and CD28 (CD28.2) at a concentration of 2 μg/mL for both antibodies. The T cells were then loaded into a Brookfield cone-and-plate viscometer for FSS treatment as described previously in Mitchell & King (Mitchell, M. J. et al. New J. Phys. 2013 15:015008). In a cone-and-plate viscometer the FSS magnitude is equal in all radial locations of the viscometer. The shear rate (G) is defined by the equation:\nτ=μG • where μ is the viscosity (cP) of the fluid. In these experiments, viscosity was approximately 2.5 cP. Before FSS treatment, the cone-and-plate viscometer was cleaned thoroughly with 70% ethanol. The stationary plate and the rotating cone were then incubated with 5% BSA for 1 h to block nonspecific adhesion. The cells were exposed to fluid shear stress ranging from 0.5-5.0 dyn/cm^2 for times ranging from 15 to 60 min. Primarily, the cells were treated with FSS of magnitude 5.0 dyn/cm^2 for 1 h.\nWhere indicated, Jurkat cells were pretreated with different compounds prior to antibody and FSS treatment. The Jurkat cells were incubated with either 5 μM Cyclosporin A (CSA), 10 μM Cytochalasin D (CCD), 10 μM GsMTx-4, or 2 mM EGTA 30 min prior to antibody and FSS treatment.\nFlow cytometry antibody staining: When staining for intracellular proteins, the cells were immediately fixed with 4% paraformaldehyde for 10 min. The cells were washed thoroughly and permeabilized with 100% ice cold methanol for 10 min. After washing the cells, the cells were stained with the indicated fluorescent-tagged antibodies for 15 min in 1% BSA. The fluorescence of each sample was measured using a Gauva easyCyte 5HT flow cytometer. Gating was performed using FlowJo software. For Jurkat samples, debris was gated out and fluorescence was quantified using FlowJo software."}, "[5]": {"settings": "Jurkat cells pretreated 10 μM 30 min prior to FSS and antibody treatment, compared to FSS and antibodies without the inhibitor"}, "[6]": {"settings": "after CAPE treatment and FSS, 24 h"}}}
{"molecule": "lipopolysaccharide [LPS]", "values": [{"measurement": "NF-κB phosphorylation, FSS with LPS versus FSS without LPS", "setting": "[1]; DC2.4 cells, 10 μg/mL LPS, 5.0 dyn/cm^2 FSS, 1 h", "value": "no significant difference"}, {"measurement": "CD40 costimulatory molecule expression enhanced in the presence of LPS", "setting": "DC2.4 cells [2]", "value": "significant"}, {"measurement": "CD80 costimulatory molecule expression enhanced in the presence of LPS", "setting": "DC2.4 cells [2]", "value": "trend"}, {"measurement": "release of IL-6, IL-12 and CCR7, FSS versus FSS with LPS", "setting": "DC2.4 cells [3]; 10 μg/mL LPS, 24 h after 1 h 5.0 dyn/cm^2 FSS", "value": "not a significant difference"}]}
{"molecule": "GsMTx-4", "values": [{"measurement": "NF-κB phosphorylation", "setting": "[1]; DC2.4 cells incubated with 10 μmol GsMTx4, FSS, two replicates", "value": "reduced"}, {"measurement": "ZAP70 phosphorylation", "setting": "[4]; [5]", "value": "significant reduction"}]}
{"molecule": "O=C(/C=C/c1ccc(O)c(O)c1)OCCc1ccccc1", "note": "[CAPE, caffeic acid phenethyl ester]", "values": [{"measurement": "NF-κB phosphorylation compared to untreated cells", "setting": "[1]; DC2.4 cells, CAPE 30 min before 1 h FSS", "value": "significant reduction"}, {"measurement": "CCR7 production", "setting": "DC2.4 cells [3]; [6]", "value": "strong trend in the reduction"}, {"measurement": "IL-6 production", "setting": "DC2.4 cells [3]; [6]", "value": "strong trend in the reduction"}, {"measurement": "IL-12 release", "setting": "DC2.4 cells [3]; [6]", "value": "significant reduction"}]}
{"molecule": "C=C1[C@@H](C)[C@H]2[C@H](Cc3ccccc3)NC(=O)[C@]23[C@H](OC(C)=O)/C=C/[C@@](C)(O)C(=O)[C@@H](C)C/C=C/[C@H]3[C@@H]1O", "note": "[CCD, Cytochalasin D]", "values": [{"measurement": "ZAP70 phosphorylation (activation), antibody-only condition", "setting": "[4]; Jurkat cells pretreated 10 μM 30 min, antibody-only, no FSS", "value": "not significantly altering"}, {"measurement": "ZAP70 phosphorylation", "setting": "[4]; [5]", "value": "significantly reduced"}]}
{"molecule": "O=C(O)CN(CCOCCOCCN(CC(=O)O)CC(=O)O)CC(=O)O", "note": "[EGTA]", "values": [{"measurement": "ZAP70 phosphorylation", "setting": "[4]; Jurkat cells pretreated 2 mM for 30 min, then FSS and antibodies, compared to FSS and antibodies only", "value": "significant reduction"}]}
